Data reported in patent US20050203191A1, “1-Aminocyclohexane derivatives for the treatment of agitation and other behavioral disorders, especially those associated with alzheimer's disease” (priority 2004, published 2005).

Test system: patients suffering from moderate to severe AD
Assay: MZ-9605 (Therapy Example 1): 28-week double-blind placebo-controlled trial of memantine 20 mg/day
Type: in vivo, human
Description: Patients suffering from moderate to severe AD were randomized to placebo or 20 mg memantine daily for 28 weeks. Primary efficacy variables were the Clinician's Interview-Based Impression of Change plus caregiver input (CIBIC-Plus) and the Alzheimer's Disease Cooperative Study Activities of Daily Living Inventory modified for severe dementia (ADCS-ADL). Secondary efficacy variables included the Severe Impairment Battery (SIB) and Neuropsychiatric Inventory (NPI). Treatment differences between baseline and endpoint were assessed. Incomplete observations were imputed using the most recent previous observation (last observation carried forward—LOCF). Results were also analyzed using only the observed values, where missing values were not replaced (Observed Cases (OC) analysis). AD patients (N=252), (67 percent female, mean age=76 years), were randomized from 32 U.S. centers. Of these, 181 completed the study (72 percent) and were evaluated at week 28. Seventy-one patients discontinued treatment prematurely (42 placebo, 29 memantine). Change on the CIBIC-Plus favored memantine over placebo (P=0.06 LOCF, P=0.03 OC) Memantine-treated patients deteriorated less than placebo treated patients on the ADCS-ADL (P=0.02 LOCF, P=0.003 OC) and the SBI (P=<0.001 LOCF, P=0.002 OC). NPI change scores at week 28 were statistically significant. Depending on the type of analysis, this benefit was found in two domains: agitation (p=0.008 LOCF) and delusion (p=0.04 LOCF) or for agitation, only (p=0.023 OC). The finding for agitation also occurred in the dichotomised analyses for memantine-treated patients with and without behavioural symptoms at baseline. […] This study supports the antiglutamatergic treatment approach in moderate to severe AD, a phase associated with patient distress and caregiver burden, for which other treatments are not available and the treatment of behavioral disorders associated therewith.
Community residing patients at least 50 years old with probable AD according to Diagnostic and Statistical Manual of Mental Disorders (DSM-IV) (American Psychiatric Association. Diagnostic and statistical manual of mental disorders. 4th ed. Washington: American Psychiatric Association; 1994.) and National Institute of Neurologic and Communicative Disorders and Stroke and AD and Related Disorders Association (NINCDS-ADRDA) criteria (McKhann G, Drachman D, Folstein M, Katzman R, Price D, Stadlan E M, Clinical diagnosis of Alzheimer's disease: report of the NINCDS-ADRDA Work Group under the auspices of Department of Health and Human Services Task Force on Alzheimer's Disease. Neurology 1984;34:939-44) were recruited. Eligibility criteria included: baseline Mini-Mental State Examination (MMSE) scores of 3-14 (Folstein M F, Folstein, S E, McHugh, P R, Mini-mental state. A practical method for grading the cognitive state of patients for the clinician. J Psychiat Res 1975;12:189-98.), stage 5 or 6 on the Global Deterioration Scale (GDS) (Reisberg B, Ferris S H, de Leon M J, Crook T, The Global Deterioration Scale for assessment of primary degenerative dementia. Am J Psychiatry 1982;139:1136-9.), and a stage of 6a or greater on the Functional Assessment Staging (FAST) (Sclan S G, Reisberg B, Functional assessment staging (FAST) in Alzheimer's disease: reliability, validity, and ordinality. Int Psychogeriatr 1992;4 Suppl 1:55-69.) instrument, signifying the presence of dementia-related deficits in the ability to perform one or more basic activities of daily living. Patients had reliable caregivers and recent (within 12 months) computed tomography (CT) or magnetic resonance imaging (MRI). […]

[1] = MZ-9605, week 28, ITT LOCF, NPI total score <75%
[2] = MZ-9605, week 28, ITT LOCF, NPI total score ≧=75% (top quartile)
[3] = MZ-9605, week 28, ITT LOCF, antipsychotics usage “YES” (N = n)
[4] = MZ-9605, week 28, ITT LOCF, antipsychotics usage “YES” (N = y)
[5] = MZ-9605, week 28, ITT LOCF, baseline NPI agitation score <4
[6] = MZ-9605, week 28, ITT LOCF, baseline NPI agitation score ≧=4
[7] = MZ-9605, week 28, ITT LOCF, overall

In the case of CC12CC3CC(C)(C1)CC(N)(C3)C2 [memantine, 1-amino-3,5-dimethyl adamantane], the adverse events (20 mg/day, 28 weeks) is reported as “not associated with significant adverse events”, the “patients who experienced an adverse event of agitation” value (20 mg/day, 28 weeks) is reported as 18% and the “premature discontinuations due to adverse events” value (20 mg/day, prior to week 28) is reported as 10%. The “Change (baseline to week 28) in NPI domain Aberr. Mot. Behavior” value (ITT, OC) was 0.01, the “Change (baseline to week 28) in NPI domain Agitation/Aggression” value (ITT, OC) was −0.01 and the “Change (baseline to week 28) in NPI domain Anxiety” value (ITT, OC) was 0.51. The “Change (baseline to week 28) in NPI domain Apathy/Indifference” value (ITT, OC) was −0.25, the “Change (baseline to week 28) in NPI domain App./Eating Change” value (ITT, OC) was 0.00 and the “Change (baseline to week 28) in NPI domain Delusions” value (ITT, OC) was −0.38. For the same compound, the “Change (baseline to week 28) in NPI domain Depression/Dysphoria” value (ITT, OC) was 0.00, the “Change (baseline to week 28) in NPI domain Disinhibition” value (ITT, OC) was −0.53 and the “Change (baseline to week 28) in NPI domain Elation/Euphoria” value (ITT, OC) was 0.18. The “Change (baseline to week 28) in NPI domain Hallucinations” value (ITT, OC) was 0.47, the “Change (baseline to week 28) in NPI domain Irritabililty/Lability” value (ITT, OC) was 0.04 and the “Change (baseline to week 28) in NPI domain Night-time Behavior” value (ITT, OC) was 0.05. For the same compound, the “ADCS-ADL (change) LS Mean Diff., MEM v. PLA” value [1] was 1.48, the “ADCS-ADL (change) mean” value [1] was −3.4 and the “CIBIC-PLUS Raw Mean Diff., MEM v. PLA” value [1] was −0.2. For the same compound, the CIBIC-PLUS mean [1] was 4.4, the “SIB (change) LS Mean Diff., MEM v. PLA” value [1] was 3.36 and the “SIB (change) mean” value [1] was −5.6. The “ADCS-ADL (change) LS Mean Diff., MEM v. PLA” value [2] was −3.47, the “ADCS-ADL (change) mean” value [2] was −2.1 and the “CIBIC-PLUS Raw Mean Diff., MEM v. PLA” value [2] was −0.4. For the same compound, the CIBIC-PLUS mean [2] was 4.6, the “SIB (change) LS Mean Diff., MEM v. PLA” value [2] was 13.3 and the “SIB (change) mean” value [2] was 0.03. For the same compound, the “ADCS-ADL (change) LS Mean Diff., MEM v. PLA” value [3] was 1.9, the “ADCS-ADL (change) mean” value [3] was −2.7 and the “CIBIC-PLUS Raw Mean Diff., MEM v. PLA” value [3] was −0.22. For the same compound, the CIBIC-PLUS mean [3] was 4.47, the “SIB (change) LS Mean Diff., MEM v. PLA” value [3] was 5.1 and the “SIB (change) mean” value [3] was −4.1. For the same compound, the “ADCS-ADL (change) LS Mean Diff., MEM v. PLA” value [4] was 0.9, the “ADCS-ADL (change) mean” value [4] was −5.5 and the “CIBIC-PLUS Raw Mean Diff., MEM v. PLA” value [4] was −0.29. The CIBIC-PLUS mean [4] was 4.62, the “SIB (change) LS Mean Diff., MEM v. PLA” value [4] was 10.6 and the “SIB (change) mean” value [4] was −2.5. The “ADCS-ADL (change) LS Mean Diff., MEM v. PLA” value [5] was 1.18, the “ADCS-ADL (change) mean” value [5] was −3.5 and the “CIBIC-PLUS Raw Mean Diff., MEM v. PLA” value [5] was −0.2. For the same compound, the CIBIC-PLUS mean [5] was 4.5, the “SIB (change) LS Mean Diff., MEM v. PLA” value [5] was 3.75 and the “SIB (change) mean” value [5] was −4.8. The “ADCS-ADL (change) LS Mean Diff., MEM v. PLA” value [6] was 4.97, the “ADCS-ADL (change) mean” value [6] was −1.2 and the “CIBIC-PLUS Raw Mean Diff., MEM v. PLA” value [6] was −0.5. The CIBIC-PLUS mean [6] was 4.4, the “SIB (change) LS Mean Diff., MEM v. PLA” value [6] was 14.05 and the “SIB (change) mean” value [6] was −0.5. For the same compound, the “ADCS-ADL (change) LS Mean Diff., MEM v. PLA” value (MZ-9605, week 28, ITT LOCF, baseline NPI agitation score ≧=4, listed as MEM) was −4.97, the “ADCS-ADL (change) LS Mean Diff., MEM v. PLA” value [7] was 2.06 and the “ADCS-ADL (change) LS mean” value [7] was −3.02. For the same compound, the “CIBIC-PLUS LS mean” value [7] was 4.48, the “CIBIC-PLUS Raw Mean Diff., MEM v. PLA” value [7] was −0.25 and the “SIB (change) LS Mean Diff., MEM v. PLA” value [7] was 5.91. For the same compound, the “SIB (change) LS mean” value [7] was −3.93, the “CIBIC-Plus ratings, mean difference memantine v. placebo” value (at endpoint (LOCF)) was 0.3 and the “ADCS-ADL total score, mean difference memantine v. placebo” value (endpoint, LOCF) was −2.1. For the same compound, the “SIB total score, mean difference memantine v. placebo” value (endpoint, LOCF) was −2.1, the “ADCS-ADL total score, mean difference memantine v. placebo” value (week 28, OC) was −3.4 and the “CIBIC-Plus ratings, mean difference memantine v. placebo” value (week 28, OC) was 0.4. The “SIB total score, mean difference memantine v. placebo” value (week 28, OC) was −3.4.
